Active and inactive are the calls of the source. No cut-off for these calls is given here.
Experiments:
HeLa [1] = test: Drug uptake in human HeLa cells assessed as staining capability after 5 hrs by fluorescence microscopy; format: ADME, cell-based
HeLa [2] = test: Cytotoxicity against human HeLa cells up to 1000 uM after 48 hrs by MTT assay; format: functional, cell-based
Jurkat = test: Cytotoxicity against human Jurkat cells at 1000 uM after 48 hrs by MTT assay; format: functional, cell-based

| Compound | Activity (HeLa [2]) | other results |
| --- | --- | --- |
| CCN(CC)c1ccc2c(-c3ccccc3C(=O)NCCNCCNCCNCCNC[C@H]3O[C@@H]4O[C@H]5[C@H](O)[C@@H](O)[C@@H](O[C@@H]6[C@@H](O)[C@H](O)[C@H](O[C@@H]7[C@@H](O)[C@H](O)[C@H](O[C@@H]8[C@@H](O)[C@H](O)[C@H](O[C@@H]9[C@@H](O)[C@H](O)[C@H](O[C@H]%10[C@H](O)[C@@H](O)[C@@H](O[C@H]3[C@H](O)[C@H]4O)O[C@@H]%10CO)O[C@H]9CO)O[C@H]8CO)O[C@H]7CO)O[C@H]6CO)O[C@@H]5CO)c3ccc(=[N+](CC)CC)cc-3oc2c1.[Cl-] | – | Drug uptake (HeLa [1]): 66.6 µM |
| OC[C@H]1O[C@@H]2O[C@H]3[C@H](O)[C@@H](O)[C@@H](O[C@H]4[C@H](O)[C@@H](O)[C@@H](O[C@H]5[C@H](O)[C@@H](O)[C@@H](O[C@H]6[C@H](O)[C@@H](O)[C@@H](O[C@H]7[C@H](O)[C@@H](O)[C@@H](O[C@H]8[C@H](O)[C@@H](O)[C@@H](O[C@H]1[C@H](O)[C@H]2O)O[C@@H]8CO)O[C@@H]7CO)O[C@@H]6CO)O[C@@H]5CO)O[C@@H]4CO)O[C@@H]3CO | inactive | – |
| NCCNC[C@H]1O[C@@H]2O[C@H]3[C@H](O)[C@@H](O)[C@@H](O[C@@H]4[C@@H](O)[C@H](O)[C@H](O[C@@H]5[C@@H](O)[C@H](O)[C@H](O[C@@H]6[C@@H](O)[C@H](O)[C@H](O[C@@H]7[C@@H](O)[C@H](O)[C@H](O[C@H]8[C@H](O)[C@@H](O)[C@@H](O[C@H]1[C@H](O)[C@H]2O)O[C@@H]8CO)O[C@H]7CO)O[C@H]6CO)O[C@H]5CO)O[C@H]4CO)O[C@@H]3CO | inactive | – |
| NCCNCCNCCNCCNC[C@H]1O[C@@H]2O[C@H]3[C@H](O)[C@@H](O)[C@@H](O[C@@H]4[C@@H](O)[C@H](O)[C@H](O[C@@H]5[C@@H](O)[C@H](O)[C@H](O[C@@H]6[C@@H](O)[C@H](O)[C@H](O[C@@H]7[C@@H](O)[C@H](O)[C@H](O[C@H]8[C@H](O)[C@@H](O)[C@@H](O[C@H]1[C@H](O)[C@H]2O)O[C@@H]8CO)O[C@H]7CO)O[C@H]6CO)O[C@H]5CO)O[C@H]4CO)O[C@@H]3CO | inactive | Activity (Jurkat): Active |
| CCN(CC)c1ccc2c(-c3ccccc3C(=O)O)c3ccc(=[N+](CC)CC)cc-3oc2c1 [RHODAMINE B] | – | Activity (HeLa [1]): Not Active |
